Test results taken from the supplement of paper PMC9663587.

Tests used:
[1] = compound: CCN1CCN(Cc2ccc(Nc3ncc(F)c(-c4cc(F)c5nc(C)n(C(C)C)c5c4)n3)nc2)CC1; test: increase in dead-cell fraction, 72 h; higher = more death;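 also: breast cancer cell lines in 384-well plates, stained with Hoechst plus LIVE/DEAD far red dye and imaged, cells above an LDR intensity threshold counted dead, Hoechst-negative corpses included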
Flavopiridol [2] = compound: T1, CN1CC[C@H](c2c(O)cc(O)c3c(=O)cc(-c4ccccc4Cl)oc23)[C@H](O)C1 [Flavopiridol]; test: as above
[3] = compound: CCN1CCN(Cc2ccc(Nc3ncc(F)c(-c4cc(F)c5nc(C)n(C(C)C)c5c4)n3)nc2)CC1; test: GR value, 72 h; higher = faster growth (1 = untreated, <0 = killing);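 also: breast cancer and non-malignant breast epithelial lines, nine half-log doses, viable cells counted by Hoechst and LIVE/DEAD dye imaging versus time-zero plates and DMSO controls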
LEE011/Ribociclib = compound: CN(C)C(=O)c1cc2cnc(Nc3ccc(N4CCNCC4)cn3)nc2n1C1CCCC1 [LEE011/Ribociclib]; test: as above
Flavopiridol [4] = compound: T1, Flavopiridol; test: as above
[5] = compound: CCc1cnn2c(NCc3ccc[n+]([O-])c3)cc(N3CCCC[C@H]3CCO)nc12; test: as above
THZ531 = compound: CN(C)C/C=C/C(=O)Nc1ccc(C(=O)N2CCC[C@@H](Nc3ncc(Cl)c(-c4c[nH]c5ccccc45)n3)C2)cc1 [THZ531]; test: as above
BSJ-03-123 = compound: CC(=O)c1c(C)c2cnc(Nc3ccc(N4CCN(CCOCCOCCOCCNC(=O)COc5cccc6c5C(=O)N(C5CCC(=O)NC5=O)C6=O)CC4)cn3)nc2n(C2CCCC2)c1=O [BSJ-03-123]; test: as above
THZ1 = compound: CN(C)C/C=C/C(=O)Nc1ccc(C(=O)Nc2cccc(Nc3ncc(Cl)c(-c4c[nH]c5ccccc45)n3)c2)cc1 [THZ1]; test: as above
[6] = compound: CC(=O)c1c(C)c2cnc(Nc3ccc(N4CCNCC4)cn3)nc2n(C2CCCC2)c1=O; test: as above
YKL-5-124 = compound: C=CC(=O)Nc1ccc(C(=O)Nc2[nH]nc3c2CN(C(=O)N[C@H](CN(C)C)c2ccccc2)C3(C)C)cc1 [YKL-5-124]; test: as above
Neratinib/HKI272 = compound: CCOc1cc2ncc(C#N)c(Nc3ccc(OCc4ccccn4)c(Cl)c3)c2cc1NC(=O)/C=C/CN(C)C [Neratinib/HKI272]; test: as above

HCC1143
increase in dead-cell fraction ([1]; 0.001 µM): -0.0049 | increase in dead-cell fraction ([1]; 0.003162 µM): -0.0032 | increase in dead-cell fraction ([1]; 0.01 µM): -0.0047 | increase in dead-cell fraction ([1]; 0.03162 µM): 0.0015 | increase in dead-cell fraction ([1]; 0.1 µM): -0.003 | increase in dead-cell fraction ([1]; 0.3162 µM): -0.0023 | increase in dead-cell fraction ([1]; 1 µM): 0.0074 | increase in dead-cell fraction ([1]; 3.162 µM): 0.0254 | increase in dead-cell fraction ([1]; 10 µM): 0.124 | increase in dead-cell fraction (Flavopiridol [2]; 0.0001 µM): -0.0098 | increase in dead-cell fraction (Flavopiridol [2]; 0.0003162 µM): -0.0008 | increase in dead-cell fraction (Flavopiridol [2]; 0.001 µM): -0.0018 | increase in dead-cell fraction (Flavopiridol [2]; 0.003162 µM): 0.0048 | increase in dead-cell fraction (Flavopiridol [2]; 0.01 µM): 0.0022 | increase in dead-cell fraction (Flavopiridol [2]; 0.03162 µM): -0.0053 | increase in dead-cell fraction (Flavopiridol [2]; 0.1 µM): 0.0185 | increase in dead-cell fraction (Flavopiridol [2]; 0.3162 µM): 0.0656 | increase in dead-cell fraction (Flavopiridol [2]; 1 µM): 0.228 | GR value ([3]; 0.001 µM): 0.881 GR | GR value ([3]; 0.003162 µM): 0.924 GR | GR value ([3]; 0.01 µM): 0.746 GR | GR value ([3]; 0.03162 µM): 0.604 GR | GR value ([3]; 0.1 µM): 0.406 GR | GR value ([3]; 0.3162 µM): 0.282 GR | GR value ([3]; 1 µM): 0.178 GR | GR value ([3]; 3.162 µM): 0.142 GR | GR value ([3]; 10 µM): -0.0908 GR | GR value (LEE011/Ribociclib; 0.001 µM): 0.856 GR | GR value (LEE011/Ribociclib; 0.003162 µM): 0.876 GR | GR value (LEE011/Ribociclib; 0.01 µM): 0.848 GR | GR value (LEE011/Ribociclib; 0.03162 µM): 0.74 GR | GR value (LEE011/Ribociclib; 0.1 µM): 0.753 GR | GR value (LEE011/Ribociclib; 0.3162 µM): 0.712 GR | GR value (LEE011/Ribociclib; 1 µM): 0.72 GR | GR value (LEE011/Ribociclib; 3.162 µM): 0.551 GR | GR value (LEE011/Ribociclib; 10 µM): 0.311 GR | GR value (Flavopiridol [4]; 0.0001 µM): 1 GR | GR value (Flavopiridol [4]; 0.0003162 µM): 1.04 GR | GR value (Flavopiridol [4]; 0.001 µM): 0.952 GR | GR value (Flavopiridol [4]; 0.003162 µM): 0.964 GR | GR value (Flavopiridol [4]; 0.01 µM): 0.988 GR | GR value (Flavopiridol [4]; 0.03162 µM): 0.933 GR | GR value (Flavopiridol [4]; 0.1 µM): 0.722 GR | GR value (Flavopiridol [4]; 0.3162 µM): 0.175 GR | GR value (Flavopiridol [4]; 1 µM): -0.31 GR | GR value ([5]; 0.0001 µM): 0.993 GR | GR value ([5]; 0.0003162 µM): 0.988 GR | GR value ([5]; 0.001 µM): 0.99 GR | GR value ([5]; 0.003162 µM): 1.04 GR | GR value ([5]; 0.01 µM): 0.95 GR | GR value ([5]; 0.03162 µM): -0.238 GR | GR value ([5]; 0.1 µM): -0.231 GR | GR value ([5]; 0.3162 µM): -0.252 GR | GR value ([5]; 1 µM): -0.228 GR | GR value (THZ531; 0.0001 µM): 0.974 GR | GR value (THZ531; 0.0003162 µM): 0.976 GR | GR value (THZ531; 0.001 µM): 1.03 GR | GR value (THZ531; 0.003162 µM): 0.957 GR | GR value (THZ531; 0.01 µM): 1.02 GR | GR value (THZ531; 0.03162 µM): 0.937 GR | GR value (THZ531; 0.1 µM): 0.689 GR | GR value (THZ531; 0.3162 µM): -0.125 GR | GR value (THZ531; 1 µM): -0.228 GR | GR value (BSJ-03-123; 0.001 µM): 0.905 GR | GR value (BSJ-03-123; 0.003162 µM): 0.89 GR | GR value (BSJ-03-123; 0.01 µM): 0.906 GR | GR value (BSJ-03-123; 0.03162 µM): 0.858 GR | GR value (BSJ-03-123; 0.1 µM): 0.861 GR | GR value (BSJ-03-123; 0.3162 µM): 0.797 GR | GR value (BSJ-03-123; 1 µM): 0.613 GR | GR value (BSJ-03-123; 3.162 µM): 0.481 GR | GR value (BSJ-03-123; 10 µM): 0.028 GR | GR value (THZ1; 0.0001 µM): 0.953 GR | GR value (THZ1; 0.0003162 µM): 1.04 GR | GR value (THZ1; 0.001 µM): 1 GR | GR value (THZ1; 0.003162 µM): 0.989 GR | GR value (THZ1; 0.01 µM): 0.908 GR | GR value (THZ1; 0.03162 µM): 0.303 GR | GR value (THZ1; 0.1 µM): -0.271 GR | GR value (THZ1; 0.3162 µM): -0.266 GR | GR value (THZ1; 1 µM): -0.31 GR | GR value ([6]; 0.0003162 µM): 0.997 GR | GR value ([6]; 0.001 µM): 1.01 GR | GR value ([6]; 0.003162 µM): 1.01 GR | GR value ([6]; 0.01 µM): 0.955 GR | GR value ([6]; 0.03162 µM): 0.793 GR | GR value ([6]; 0.1 µM): 0.652 GR | GR value ([6]; 0.3162 µM): 0.503 GR | GR value ([6]; 1 µM): 0.392 GR | GR value ([6]; 3.162 µM): 0.275 GR | GR value (YKL-5-124; 0.001 µM): 0.423 GR | GR value (YKL-5-124; 0.003162 µM): 0.398 GR | GR value (YKL-5-124; 0.01 µM): 0.336 GR | GR value (YKL-5-124; 0.03162 µM): 0.241 GR | GR value (YKL-5-124; 0.1 µM): 0.223 GR | GR value (YKL-5-124; 0.3162 µM): 0.183 GR | GR value (YKL-5-124; 1 µM): 0.142 GR | GR value (YKL-5-124; 3.162 µM): 0.0598 GR | GR value (YKL-5-124; 10 µM): -0.0734 GR | GR value (Neratinib/HKI272; 0.0003162 µM): 0.964 GR | GR value (Neratinib/HKI272; 0.001 µM): 0.951 GR | GR value (Neratinib/HKI272; 0.003162 µM): 0.941 GR | GR value (Neratinib/HKI272; 0.01 µM): 0.864 GR | GR value (Neratinib/HKI272; 0.03162 µM): 0.876 GR | GR value (Neratinib/HKI272; 0.1 µM): 0.761 GR | GR value (Neratinib/HKI272; 0.3162 µM): 0.654 GR | GR value (Neratinib/HKI272; 1 µM): 0.458 GR | GR value (Neratinib/HKI272; 3.162 µM): 0.0904 GR
